Assay results as given in patent US10745663B2, “Methods for modulating production profiles of recombinant proteins” (ARES TRADING S.A., priority 2015, dated 2020).
Read-outs that look alike come from different tables or passages of the source.

Key:
[1] = tested on: CHO-S cells expressing IgG1 mAb1; test: Fed-batch cell culture in microplates, cells expressing mAb1, with DIDS; type: cell-based, Chinese hamster
Description: (§1) Assays were performed with 2 CHO cell lines: • CHO-S cells expressing IgG1 mAb1, herein “Cells mAb1” or “mAb1 cells”. “mAb1” is a fully human monoclonal antibody directed against a soluble protein. Its isoelectric point (pI) is about 8.20-8.30. • CHO-K1 cells expressing IgG1 mAb2, herein “Cells mAb2” or “mAb2 cells”. “mAb2” is a humanised monoclonal antibody directed against a receptor found on the cell membrane. Its isoelectric point (pI) is about 9.30.
(§2) Cells expressing mAb2 were inoculated at 0.2×10^6 cells per milliliter (mL), whereas cells expressing mAb1 were inoculated at 0.3×10^6 cells per mL.
(§3) All assays were performed in fed-batch culture. The host cells were cultured in fed-batch system either in microplates (“Deep well plate”) or in Spin Tubes®, and incubated at 36.5° C., 90% relative humidity, 5% CO2 and 320 rpm shaking during 14 days.
(§4) Viable cell density and viability were measured with the Guava easyCyte® flow cytometer or with the ViCell.
(§5) Antibody titres were measured either with the fortéBIO Octet® or with Biacore C®.
(§6) Glycosylation profiles were established by capillary gel electrophoresis with laser-induced fluorescence (CGE-LIF). Dosages of aggregates and fragments were performed respectively via Size Exclusion High Performance Liquid Chromatography (SE-HPLC) and via SDS-capillary gel electrophoresis.
The host cells expressing the antibody mAb1 were cultured in presence of DIDS at concentrations ranging from 0.4 μM to 83 μM. The cell density and the viability were measured during the culture, whereas the titre was measured on day 14 (FIGS. 1A-1C). Addition of DIDS in the culture medium allowed increase of viable cell density and the titre. Specifically the concentration of 83 μM of DIDS allowed to double the cell density at day 7 (WD7) and to multiply the titre by factor 1.4 at the end of the culture process at day 14 (WD14). The viability was maintained, compared to the control, until day 12.

[2] = tested on: CHO-K1 cells expressing IgG1 mAb2; type: cell-based, Chinese hamster
Description: as §1, §2, §3, §4, §5, §6
(§7) The efficacy of DIDS was also tested in Spin tubes at concentrations around 40 μM (41 μM) and/or around 85 μM (82 μM for mAb1 and 87 μM for mAb2). These concentrations are not toxic for the host cells expressing the antibodies mAb1 and mAb2 and allowed to obtain an important increase of the cell density and the titre of the antibody mAb1 (FIG. 3). As expected for the cells expressing the antibody mAb1, the viable cell density and the specific production increase in the presence of DIDS, which allowed at DIDS concentration of 82 μM to multiply the titre by factor 1.4 comparing to the control (FIGS. 3A-3D). […] Similar results are observed for mAb2: DIDS allowed the increase of the specific productivity of the host cells expressing the antibodies mAb2 (about 20% increase at day 10), and is able to maintain the viability of the cells for about 10 days (FIGS. 3E-H).

[3] = tested on: CHO-S cells expressing IgG1 mAb1; type: cell-based, Chinese hamster; details: Spin tubes
Description: as §1, §2, §3, §4, §5, §6, §7

recombinant CHO cells [4] = details: batch culture, end of the production run (after 8 days of culture); cited from earlier work
recombinant CHO cells [5] = details: perfusion batch culture, within 6 days of treatment; cited from earlier work
[6] = in the presence of DIDS (41 μM, 82 μM)

Row | Structure (SMILES) | cell density ([1]; 83 μM DIDS, day 7 (WD7), microplates, versus control) | titre multiplied by factor ([1]; 83 μM DIDS, end of culture day 14 (WD14), microplates, versus control) | viability ([1]; compared to the control, until day 12, DIDS 0.4 μM to 83 μM) | toxicity for the host cells expressing mAb2 ([2]; DIDS around 40 μM (41 μM) and/or 87 μM, Spin tubes) | time for which viability of the cells is maintained ([2]; Spin tubes, mAb2 cells) | increase of the specific productivity ([2]; day 10, Spin tubes, mAb2 cells) | titre multiplied by factor ([3]; 82 μM DIDS, comparing to the control) | toxicity for the host cells expressing mAb1 ([3]; DIDS 41 μM and 82 μM) | specific production [3, 6] | viable cell density [3, 6] | cell viability (recombinant CHO cells [4]) | cell viability (recombinant CHO cells [5]) [%]
1 | O=S(=O)([O-])c1cc(N=C=S)ccc1/C=C/c1ccc(N=C=S)cc1S(=O)(=O)[O-].[Na+].[Na+] [DIDS, 4,4′-diisothiocyanostilbene-2,2′-disulfonic acid] | double | 1.4 | maintained | not toxic | about 10 days | about 20% | 1.4 | not toxic | increase | increase | – | –
2 | CCCC(=O)[O-].[Na+] [sodium butyrate] | – | – | – | – | – | – | – | – | – | – | less than 45% | 15
